Assay [1] deals with wild-type un-phosphorylated FGFR3 protein (Homo sapiens, UniProt P22607). Nature of the assay: FGFR Enzymatic Assay (FRET peptide phosphorylation). In kind it is biochemical. The following applies: pre-incubated for 4 hours.
Method: The inhibitor potency of the exemplified compounds was determined in an enzyme discontinuous assay that measures peptide phosphorylation using FRET measurements to detect product formation. Inhibitors were serially diluted in DMSO and a volume of 0.2 μL was transferred to the wells of a 384-well plate. A 5 μL/well volume of enzyme isoforms of FGFR (-1, -2, -3 wild-type and mutant isoforms, -4) including phosphorylated and un-phosphorylated proteins diluted in assay buffer (50 mM HEPES, 10 mM MgCl2, 1 mM EGTA, 0.01% Tween-20, 5 mM DTT, pH 7.5) was added to the plate and pre-incubated with inhibitor for 5 to 15 minutes at ambient temperature. Appropriate controls (enzyme blank and enzyme with no inhibitor) were included on the plate. The reaction was initiated by the addition of a 5 μL/well volume containing both biotinylated [sequence] peptide substrate (SEQ ID NO: 1) and ATP in assay buffer. The 10 μL/well reaction concentration of the peptide substrate was 500 nM whereas the ATP concentration was maintained near or below the ATP Km. The ATP Km values were pre-determined in a separate series of experiments. The reaction plate was incubated at 25° C. for 1 hr and the reactions were ended with the addition of 5 μL/well of quench solution (50 mM Tris, 150 mM NaCl, 0.5 mg/mL BSA, pH 7.8; 45 mM EDTA, 600 nM staurosporin, with Perkin Elmer Lance Reagents at 3.75 nM Eu-antibody PY20 and 180 nM APC-Streptavidin). The plate was allowed to equilibrate for ˜10 minutes at ambient temperature before scanning on a PheraStar plate reader (BMG Labtech) instrument.
Either GraphPad prism or XLfit was used to analyze the data. The IC50 values were derived by fitting the data to a four parameter logistic equation producing a sigmoidal dose-response curve with a variable Hill coefficient. Prism equation: Y=Bottom+(Top−Bottom)/(1+10^((Log IC50−X)*Hill slope)); XLfit equation: Y=(A+((B−A)/(1+((X/C)^D)))) where X is the logarithm of inhibitor concentration and Y is the response.
Another assay concerns RT-112/84 cell line. Nature of the assay: Luminescent Viability Assay (CellTiter-Glo). In kind it is cell-based. Particulars: RT-112/84 cell line (bladder, FGFR3-TACC3), 3 days. On the procedure:
RT112 cells (cell lines and genetic profiles further detailed in Table 2) were purchased from ATCC (Manassas, VA) and maintained in RPMI, 10% FBS (Gibco/Life Technologies). To measure the effect of test compounds on the viability of cells, the cells were plated with RPMI 10% FBS (5×10^3 cells/well/in 50 μL) into black 96-well Greiner polystyrene in the presence or absence of 50 μL of a concentration range of test compounds. After 3 days, 100 μL of CellTiter-Glo Reagent (Promega) was added. Luminescence was read with a TopCount (PerkinElmer). IC50 determination was performed by fitting the curve of percent inhibition versus the log of the inhibitor concentration using the GraphPad Prism 5.0 software.

Where only a bound is given, the exact number is not on record here.

Broadly, the IC50 is the midpoint of a concentration-inhibition curve. Lower therefore signals higher potency.

wild-type un-phosphorylated FGFR3 protein, sequence (P22607 23-806): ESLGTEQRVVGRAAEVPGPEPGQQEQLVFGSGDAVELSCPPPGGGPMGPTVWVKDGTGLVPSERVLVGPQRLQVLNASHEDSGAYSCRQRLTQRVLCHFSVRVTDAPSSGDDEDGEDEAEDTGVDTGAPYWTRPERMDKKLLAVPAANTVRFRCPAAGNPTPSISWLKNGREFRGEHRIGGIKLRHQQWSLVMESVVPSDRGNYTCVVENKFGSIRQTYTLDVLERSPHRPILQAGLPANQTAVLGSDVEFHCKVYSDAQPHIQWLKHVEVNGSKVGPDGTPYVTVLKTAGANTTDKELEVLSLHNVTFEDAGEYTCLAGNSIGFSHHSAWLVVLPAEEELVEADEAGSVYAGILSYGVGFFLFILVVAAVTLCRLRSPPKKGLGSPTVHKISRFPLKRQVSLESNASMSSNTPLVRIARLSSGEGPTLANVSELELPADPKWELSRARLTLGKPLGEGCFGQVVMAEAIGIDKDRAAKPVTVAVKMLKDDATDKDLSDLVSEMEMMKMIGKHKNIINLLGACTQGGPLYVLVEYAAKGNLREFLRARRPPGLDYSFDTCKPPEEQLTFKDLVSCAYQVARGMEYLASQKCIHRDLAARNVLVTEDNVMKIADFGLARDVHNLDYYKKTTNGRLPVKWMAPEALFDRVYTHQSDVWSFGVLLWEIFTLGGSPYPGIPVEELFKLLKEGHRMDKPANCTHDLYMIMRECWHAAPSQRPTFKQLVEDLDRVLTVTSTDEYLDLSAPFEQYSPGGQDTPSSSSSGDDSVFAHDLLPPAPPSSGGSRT

In the case of `O=S1(=O)CCCC(n2cc(-c3cnc4ccn5c(CO)c(-c6c(Cl)cccc6Cl)nc5c4c3)cn2)C1` (single isomer, unassigned) [26 peak 1], the half-inhibitory concentration (IC50) in assay [1] was 1 to 5 nM; in the assay with RT-112/84 cell line (Homo sapiens, RT112/84, 72 h), 10 to 50 nM.
For `Cc1cccc(Cl)c1-c1nc2c3cc(-c4cnn(CC(C)(C)O)c4)cnc3ccn2c1CO` [Example 22, 1-(4-(2-(2-Chloro-6-methylphenyl)-3-(hydroxymethyl)imidazo[2,1-f][1,6]naphthyridin-9-yl)-1H-pyrazol-1-yl)-2-methylpropan-2-ol], in that order: 1 to 5 nM and 10 to 50 nM.
For `OCc1c(-c2c(Cl)cccc2Cl)nc2c3cc(-c4cnn(Cc5ccncn5)c4)cnc3ccn12` [Example 1, (2-(2,6-Dichlorophenyl)-9-(1-(pyrimidin-4-ylmethyl)-1H-pyrazol-4-yl)imidazo[2,1-J][1,6]naphthyridin-3-yl)methanol], in that order: 1 to 5 nM and 10 to 50 nM.
For `CC(=O)N1CCN(Cc2ccc(-c3cnc4ccn5c(CO)c(-c6c(Cl)cccc6Cl)nc5c4c3)cc2)CC1` [Example 9, 1-(4-(4-(2-(2,6-Dichlorophenyl)-3-(hydroxymethyl)imidazo[2,1-f][1,6]naphthyridin-9-yl)benzyl)piperazin-1-yl)ethan-1-one], in that order: 1 to 5 nM and 10 to 50 nM.
Consider `COCC(=O)N1CC(Cn2cc(-c3cnc4ccn5c(CO)c(-c6c(Cl)cccc6Cl)nc5c4c3)cn2)C1` [Example 27, 1-(3-((4-(2-(2,6-Dichlorophenyl)-3-(hydroxymethyl)imidazo[2,1-f][1,6]naphthyridin-9-yl)-1H-pyrazol-1-yl)methyl)azetidin-1-yl)-2-methoxyethan-1-one], for which the IC50 in assay [1] was in the range of 1 to 5 nM; in the assay with RT-112/84 cell line (Homo sapiens, RT112/84, 72 h), 10 to 50 nM.
For `OCc1c(-c2c(Cl)cccc2Cl)nc2c3cc(-c4cnn(Cc5ccnc(C(F)(F)F)c5)c4)cnc3ccn12` [Example 5, (2-(2,6-Dichlorophenyl)-9-(1-((2-(trifluoromethyl)pyridin-4-yl)methyl)-1H-pyrazol-4-yl)imidazo[2,1-f][1,6]naphthyridin-3-yl)methanol], in that order: 1 to 5 nM and < 10 nM.
For `CC(C)(C#N)n1cc(-c2cnc3ccn4c(CO)c(-c5c(Cl)cccc5Cl)nc4c3c2)cn1` [Example 16, 2-(4-(2-(2,6-Dichlorophenyl)-3-(hydroxymethyl)imidazo[2,1-f][1,6]naphthyridin-9-yl)-1H-pyrazol-1-yl)-2-methylpropanenitrile], in that order: 1 to 5 nM and 10 to 50 nM.
For `O=C(c1ccc(-c2cnc3ccn4c(CO)c(-c5c(Cl)cccc5Cl)nc4c3c2)cc1)N1C[C@@H]2C[C@H]1CO2` [Example 7, ((1S,4S)-2-Oxa-5-azabicyclo[2.2.1]heptan-5-yl)(4-(2-(2,6-dichlorophenyl)-3-(hydroxymethyl)imidazo[2,1-f][1,6]naphthyridin-9-yl)phenyl)methanone], in that order: 1 to 5 nM and 10 to 50 nM.
As to `N#CCn1cc(-c2cnc3ccn4c(C(F)F)c(-c5c(Cl)cccc5Cl)nc4c3c2)cn1` [Example 29, 2-(4-(2-(2,6-Dichlorophenyl)-3-(difluoromethyl)imidazo[2,1-f][1,6]naphthyridin-9-yl)-1H-pyrazol-1-yl)acetonitrile], the IC50 in assay [1] was < 1 nM; with RT-112/84 cell line (Homo sapiens, RT112/84, 72 h) it was < 10 nM.
For `CC(O)Cn1cc(-c2cnc3ccn4c(CO)c(-c5c(Cl)cccc5Cl)nc4c3c2)cn1` (single isomer, unassigned) [18 peak 1], in that order: 1 to 5 nM and 10 to 50 nM.
For `CN1CCC(n2cc(-c3cnc4ccn5c(CCO)c(-c6c(Cl)cccc6Cl)nc5c4c3)cn2)CC1` [Example 34, 2-(2-(2,6-Dichlorophenyl)-9-(1-(1-methylpiperidin-4-yl)-1H-pyrazol-4-yl)imidazo[2,1-f][1,6]naphthyridin-3-yl)ethan-1-ol], in that order: 1 to 5 nM and 10 to 50 nM.
Regarding `CC(O)Cn1cc(-c2cnc3ccn4c(CO)c(-c5c(Cl)cccc5Cl)nc4c3c2)cn1` (single isomer, unassigned) [18 peak 2], the IC50 in assay [1] fell in the range of 1 to 5 nM; in the assay on RT-112/84 cell line, 10 to 50 nM.
Take `C[C@H](CO)n1cc(-c2cnc3ccn4c(CO)c(-c5c(Cl)cccc5Cl)nc4c3c2)cn1` [Example 24, (R)-2-(4-(2-(2,6-Dichlorophenyl)-3-(hydroxymethyl)imidazo[2,1-f][1,6]naphthyridin-9-yl)-1H-pyrazol-1-yl)propan-1-ol]: the IC50 in assay [1] lay within 1 to 5 nM; in the assay on RT-112/84 cell line (Homo sapiens, RT112/84, 72 h), 10 to 50 nM.
On to `O=S1(=O)CCCC(n2cc(-c3cnc4ccn5c(CO)c(-c6c(Cl)cccc6Cl)nc5c4c3)cn2)C1` (single isomer, unassigned) [26 peak 2], for which the values for the IC50 (in assay [1]; in the assay on RT-112/84 cell line) were < 1 nM and < 10 nM, respectively.
For `CC(CC#N)n1cc(-c2cnc3ccn4c(CO)c(-c5c(Cl)cccc5Cl)nc4c3c2)cn1` (single isomer, unassigned) [23 peak 2], in that order: < 1 nM and 10 to 50 nM.
On to `CC(CC#N)n1cc(-c2cnc3ccn4c(CO)c(-c5c(Cl)cccc5Cl)nc4c3c2)cn1` (single isomer, unassigned) [23 peak 1], for which the IC50 was < 1 nM in assay [1] and 10 to 50 nM with RT-112/84 cell line (Homo sapiens, RT112/84, 72 h).
For `CC(C#N)n1cc(-c2cnc3ccn4c(C(F)F)c(-c5c(Cl)cccc5Cl)nc4c3c2)cn1` (centres unmarked) [Example 32, 2-(4-(2-(2,6-Dichlorophenyl)-3-(difluoromethyl)imidazo[2,1-f][1,6]naphthyridin-9-yl)-1H-pyrazol-1-yl)propanenitrile], in that order: < 1 nM and < 10 nM.
For `CN(C)C(=O)Cn1cc(-c2cnc3ccn4c(CO)c(-c5c(Cl)cccc5Cl)nc4c3c2)cn1` [Example 19, 2-(4-(2-(2,6-Dichlorophenyl)-3-(hydroxymethyl)imidazo[2,1-f][1,6]naphthyridin-9-yl)-1H-pyrazol-1-yl)-N,N-dimethylacetamide], in that order: 1 to 5 nM and 10 to 50 nM.
For the compound `CS(=O)(=O)CCn1cc(-c2cnc3ccn4c(C(F)F)c(-c5c(Cl)cccc5Cl)nc4c3c2)cn1` [Example 28, 2-(2,6-Dichlorophenyl)-3-(difluoromethyl)-9-(1-(2-(methylsulfonyl)ethyl)-1H-pyrazol-4-yl)imidazo[2,1-f][1,6]naphthyridine], the IC50 in assay [1] is < 1 nM; with RT-112/84 cell line (Homo sapiens, RT112/84, 72 h), < 10 nM.
For `COCC(=O)N1CCC(n2cc(-c3cnc4ccn5c(CO)c(-c6c(C)cccc6Cl)nc5c4c3)cn2)CC1` [Example 21, 1-(4-(4-(2-(2-Chloro-6-methylphenyl)-3-(hydroxymethyl)imidazo[2,1-f][1,6]naphthyridin-9-yl)-1H-pyrazol-1-yl)piperidin-1-yl)-2-methoxyethan-1-one], in that order: 1 to 5 nM and < 10 nM.
As to `CN(C)C(=O)c1ccc(Cn2cc(-c3cnc4ccn5c(CO)c(-c6c(Cl)cccc6Cl)nc5c4c3)cn2)cn1` [Example 12, 5-((4-(2-(2,6-Dichlorophenyl)-3-(hydroxymethyl)imidazo[2,1-f][1,6]naphthyridin-9-yl)-1H-pyrazol-1-yl)methyl)-N,N-dimethylpicolinamide], the concentration for half-maximal inhibition (IC50) was < 1 nM in assay [1] and < 10 nM in the assay with RT-112/84 cell line (Homo sapiens, RT112/84, 72 h).
On to `CC(C#N)n1cc(-c2cnc3ccn4c(CO)c(-c5c(Cl)cccc5Cl)nc4c3c2)cn1` (single isomer, unassigned) [17 peak 1], for which the IC50 is < 1 nM in assay [1] and < 10 nM in the assay with RT-112/84 cell line (Homo sapiens, RT112/84, 72 h).

The values above are taken from patent US12428420B2, “Tricyclic heterocycles as FGFR inhibitors” (Incyte Corporation, priority 2021, dated 2025).
